Experimental data taken from PMC4862738 (Biomacromolecules, 2016).

Target: wt-PhaCCs (Chromobacterium sp. USM2, UniProt E1APK1)
Assay: continuous DTNB assay of CoA release, […] nm
Format: biochemical
Details: KPi 100 mM pH 7.8, 30 °C, BSA 0.2 mg/mL, DTNB 0.3 mM, Triton X-100 50 mg/L

## C[C@@H](O)CC(=O)SCCNC(=O)CCNC(=O)[C@H](O)C(C)(C)COP(=O)(O)OP(=O)(O)OC[C@H]1O[C@@H](n2cnc3c(N)ncnc32)[C@H](O)[C@@H]1OP(=O)(O)O [1a, HBCoA]
  continuous DTNB assay of CoA release, 412 nm: addition of BSA would increase SA of PhaCCs with HBCoA
